From ChEMBL document CHEMBL1138245, “Discovery of N1-(6-chloroimidazo[2,1-b][1,3]thiazole-5-sulfonyl)tryptamine as a potent, selective, and orally active 5-HT(6) receptor agonist” (J Med Chem, 2007)

Molecular target: 5-hydroxytryptamine receptor 6 (Homo sapiens, UniProt P50406)
Experiment: Displacement of [3H]LSD from human 5HT6 receptor expressed in HeLa cells
Assay type: cell-based

Chain of 5-hydroxytryptamine receptor 6 (P50406 whole entry): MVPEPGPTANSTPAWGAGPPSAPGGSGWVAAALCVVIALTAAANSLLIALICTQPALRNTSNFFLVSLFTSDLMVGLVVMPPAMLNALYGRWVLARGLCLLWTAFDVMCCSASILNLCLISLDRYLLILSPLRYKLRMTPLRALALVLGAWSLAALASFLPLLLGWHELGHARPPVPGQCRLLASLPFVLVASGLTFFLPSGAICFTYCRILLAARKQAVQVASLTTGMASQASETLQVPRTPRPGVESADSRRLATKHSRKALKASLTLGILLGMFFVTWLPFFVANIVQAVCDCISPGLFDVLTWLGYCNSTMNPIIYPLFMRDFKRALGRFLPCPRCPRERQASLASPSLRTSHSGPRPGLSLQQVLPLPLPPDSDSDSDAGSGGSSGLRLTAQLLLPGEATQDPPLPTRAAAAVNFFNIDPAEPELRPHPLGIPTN

Row | Structure (SMILES) | Ki [µM]
1 | CN(C)CCn1cc(S(=O)(=O)c2cccc(F)c2)c2ccccc21 | 0.0103
2 | NCCc1cn(S(=O)(=O)c2ccc(F)cc2)c2ccccc12 | 0.021
